Experimental data reported in US20130190223A1, “NONIMMUNOSUPPRESSIVE CYCLOSPORINE ANALOGUE MOLECULES” (ISOTECHNIKA PHARMA INC., priority 2008, published 2013).
Read-outs that look alike come from different tables or passages of the source.

Assays:
CyP-A = CyP-A (Homo sapiens, UniProt P62937); conditions: cited from earlier work
calcineurin = conditions: literature statement; cited from earlier work
CyP-D = target: T1, CyP-D (Rattus norvegicus, UniProt P29117); format: biochemical; conditions: mitochondria isolated from rat liver, 190 μM calcium, swelling as decline in A540
T1 construct: Mitochondria were isolated from fresh rat liver; from tissue; host or cells: rat liver mitochondria
T1 sequence (P29117 30-206): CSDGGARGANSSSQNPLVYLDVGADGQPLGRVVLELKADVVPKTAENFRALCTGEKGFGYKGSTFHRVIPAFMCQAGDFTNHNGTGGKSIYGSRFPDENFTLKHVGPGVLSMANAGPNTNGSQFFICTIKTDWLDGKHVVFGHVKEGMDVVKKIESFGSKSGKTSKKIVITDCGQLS
Source text: A mitochondria swelling assay was used to measure the efficacy of NICAMs in blocking CyP-D and mitochondrial permeability transition. Under certain pathological conditions, mitochondria lose the ability to regulate calcium levels, and excessive calcium accumulation in the mitochondrial matrix results in the opening of large pores in the inner mitochondrial membrane. Nonselective conductance of ions and molecules up to 1.5 kilodaltons through the pore, a process called mitochondrial permeability transition, leads to swelling of mitochondria and other events which culminate in cell death. […] In general, mitochondria isolated from rat liver were exposed to calcium to induce MPTP opening in the absence or presence of test compounds, and calcium-induced swelling was measured as a reduction in light absorbance at 540 nm.
Mitochondria were isolated from fresh rat liver. Ice-cold or 4° C. conditions were used throughout all steps of the isolation. The liver was rinsed thoroughly and chopped in a small volume of isolation buffer (IB; 10 mM Hepes, 70 mM sucrose, 210 mM mannitol, 0.5 mM EDTA). Aliquots of the minced liver were homogenized in IB using a Teflon-glass Potter-Elvehjem tissue grinder and passed through a cell screen filter. The filtered homogenate was centrifuged at 600 g for 10 min, then the resulting supernatant centrifuged at 7000 g for 10 min. The supernatant was discarded, and the pellet resuspended in wash buffer (10 mM Hepes, 70 mM sucrose, 210 mM mannitol) and centrifuged a final time at 7000 g for 10 min. The supernatant was discarded, and the mitochondria-containing pellet suspended and stored on ice in 2 mL of respiration buffer (RB; 5 mM Hepes, 70 mM sucrose, 210 mM mannitol, 10 mM sodium succinate, 1 mM sodium phosphate dibasic).
Test compound solutions were prepared from 10 mg/ml stocks (dimethyl sulfoxide vehicle) first by diluting the test compound 1000× into respiration buffer #2 (RB2; 5 mM Hepes, 70 mM sucrose, 210 mM mannitol, 10 mM sodium succinate, 1 mM sodium phosphate dibasic, 1% fetal bovine serum, 2 μM rotenone), then by 3×-serial dilutions in RB2 to achieve test compound concentrations of 10000, 3333, 1111, 370, 123, 41, and 14 ng/mL. Polystyrene tubes and plates were used for all preparations.
Swelling assays were completed in a 96-well flat-bottom polystyrene plates. In each well a 10-μL aliquot of mitochondria suspension, equivalent to 100-200 μg total protein, was combined with 90 μL of test compound, incubated for 10 min, then the baseline absorbance measured on a plate reader (540 nm wavelength; A540). Swelling was induced by adding 5 μL of 4 mM calcium chloride to achieve a final calcium concentration of 190 μM. Mitochondria swelling was indicated by a decline in A540. […] Duplicate samples were assayed for each test compound concentration.
Means and ranges of duplicate samples are shown.

human lymphocytes = test: Immunosuppressive potency: inhibition of proliferation of anti-CD3 stimulated human lymphocytes (CFSE, flow cytometry); format: cell-based; conditions: relative potency: IC50 for inhibition of cell division normalized to CsA, 3 days incubation
Procedure: The immunosuppressive potency of test compounds was assessed by measuring their ability to inhibit the proliferation of human lymphocytes in cell culture. Lymphocytes were isolated from blood of normal human volunteers by Ficoll-gradient centrifugation and stained with 2 μg/ml carboxyfluoroscein diacetate succinimydyl ester (CFSE), a fluorescent cell division tracer molecule. Cells were stimulated through the CD3/T-cell receptor by seeding cells at 300,000/well into 96-well flat-bottom, high-binding plates coated with 1 μg/ml UCHT-1 anti-human CD3 antibody. Test compounds were prepared first as 10 mg/ml stock solutions in dimethylsulfoxide (DMSO). Test solutions were prepared by 500-fold dilution of the DMSO stock solutions, then 3-fold serial dilutions in cell culture medium (RPMI+5% FBS+penicillin-steptomycin) for a total of 7 concentrations per compound. Test solutions were added in equal volume to the culture wells containing cells to achieve final concentrations after dilution of 13.7 ng/ml-10,000 ng/ml. […] Following 3 days incubation cells were stained with CD95-APC (lymphocyte activation marker) and analyzed by flow cytometry with a Becton Dickinson FACSCalibur. Percentage cell division was assessed in forward/side-scatter-gated lymphocytes by measuring the proportion of cells that underwent one or more cell divisions as determined by serial halving of CFSE intensity. The nondivided parent population was determined from samples maintained in culture without anti-CD3 stimulation. IC50 values for inhibition of cell division were determined by nonlinear regression analysis. […]

Chain of CyP-A (P62937 whole entry): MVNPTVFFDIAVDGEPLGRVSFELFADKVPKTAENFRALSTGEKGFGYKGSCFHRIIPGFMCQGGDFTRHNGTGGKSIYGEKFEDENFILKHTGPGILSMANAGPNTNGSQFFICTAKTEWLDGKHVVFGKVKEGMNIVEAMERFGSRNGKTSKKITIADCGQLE

Row | SMILES | binding affinity for CyP-A (CyP-A) | immunosuppressive activity (calcineurin) | binding affinity for CyP-A (CyP-A; literature statement) | CYP-D Inhibition (% Potency Vs CsA) (CyP-D) | Immunosuppression (% Relative to CsA) (human lymphocytes)
1 | C/C=C/C[C@@H](C)[C@@H](O)[C@H]1C(=O)N[C@@H](CC)C(=O)N(C)[C@H](SCCN(C)C)C(=O)N(C)[C@@H](CC(C)(C)O)C(=O)N[C@@H](C(C)C)C(=O)N(C)[C@@H](CC(C)C)C(=O)N[C@@H](C)C(=O)N[C@H](C)C(=O)N(C)[C@@H](CC(C)C)C(=O)N(C)[C@@H](CC(C)C)C(=O)N(C)[C@@H](C(C)C)C(=O)N1C [SCY-635, DimethylaminoethylthioSar^3-hydroxyLeu^4-Cyclosporin] | retains binding affinity for CyP-A | no immunosuppressive activity | – | – | –
2 | C/C=C/C[C@@H](C)[C@@H](O)[C@H]1C(=O)N[C@@H](CC)C(=O)N(C)CC(=O)N(C)[C@@H]([C@@H](C)CC)C(=O)N[C@@H](C(C)C)C(=O)N(C)[C@@H](CC(C)C)C(=O)N[C@@H](C)C(=O)N[C@H](C)C(=O)N(C)[C@@H](CC(C)C)C(=O)N(C)[C@@H](CC(C)C)C(=O)N(C)[C@@H](C(C)C)C(=O)N1C [NIM 811, Melle^4-cyclosporine] | – | no immunosuppressive activity | retains binding affinity for CyP-A | – | –
3 | C/C=C/C[C@@H](C)[C@@H](O)[C@H]1C(=O)N[C@@H](CC)C(=O)N(C)[C@H](C)C(=O)N(CC)[C@@H](C(C)C)C(=O)N[C@@H](C(C)C)C(=O)N(C)[C@@H](CC(C)C)C(=O)N[C@@H](C)C(=O)N[C@H](C)C(=O)N(C)[C@@H](CC(C)C)C(=O)N(C)[C@@H](CC(C)C)C(=O)N(C)[C@@H](C(C)C)C(=O)N1C [DEBIO 025, MeAla^3EtVal^4-Cyclosporin] | retains binding affinity for CyP-A | no immunosuppressive activity | – | – | –
4 | CCCNC(=O)CCC=CCC(C)C(O)C1C(=O)NC(CC)C(=O)N(C)CC(=O)N(C)C(CC(C)C)C(=O)NC(C(C)C)C(=O)N(C)C(CC(C)C)C(=O)NC(C)C(=O)NC(C)C(=O)N(C)C(CC(C)C)C(=O)N(C)C(CC(C)C)C(=O)N(C)C(C(C)C)C(=O)N1C (stereo not drawn) [Compound 404-178] | – | – | – | 71.3% | <1%
5 | CCC1NC(=O)C(C(O)C(C)CC=CCCCCCCCCCC(=O)N(C)C)N(C)C(=O)C(C(C)C)N(C)C(=O)C(CC(C)C)N(C)C(=O)C(CC(C)C)N(C)C(=O)C(C)NC(=O)C(C)NC(=O)C(CC(C)C)N(C)C(=O)C(C(C)C)NC(=O)C(CC(C)C)N(C)C(=O)CN(C)C1=O (stereo not drawn) [Compound 420-104] | – | – | – | 55.8% | 11%
6 | CCC1NC(=O)C(C(O)C(C)CCCCC(=O)N(C)C)N(C)C(=O)C(C(C)C)N(C)C(=O)C(CC(C)C)N(C)C(=O)C(CC(C)C)N(C)C(=O)C(C)NC(=O)C(C)NC(=O)C(CC(C)C)N(C)C(=O)C(C(C)C)NC(=O)C(CC(C)C)N(C)C(=O)CN(C)C1=O (stereo not drawn) [Compound 404-132] | – | – | – | 122.0% | <1%
